Source: ChEMBL document CHEMBL4610100, “Jatrophane Diterpenoids from Euphorbia esula as Inhibitors of RANKL-Induced Osteoclastogenesis” (J Nat Prod, 2020)

Test system: BMDM
Experiment: Anti-osteoporosis activity in C57BL/6 mouse bone marrow macrophages assessed as inhibition of M-CSF/GST-tagged recombinant RANKL-induced osteoclast differentiation measured after 5 days by TRAP staining based assay
Format: functional, cell-based
Conditions: C57BL/6, BMDM, 120 h

Structure (SMILES)	IC50
C=C1[C@H](OC(=O)c2ccccc2)[C@@H](OC(C)=O)[C@@H](OC(=O)c2cccnc2)C(C)(C)/C=C/[C@@H](C)C(=O)[C@@]2(O)C[C@H](C)[C@H](OC(C)=O)[C@@H]2[C@H]1OC(C)=O	> 10 µM
C=C1[C@H](OC(=O)c2ccccc2)[C@@H](O)[C@@H](OC(=O)c2cccnc2)C(C)(C)/C=C/[C@@H](C)C(=O)[C@@]2(O)C[C@H](C)[C@H](OC(C)=O)[C@@H]2[C@H]1OC(C)=O	10 µM
